In patent US10723707B2, “Heterocyclic substituted 2-amino quinazoline derivatives for the treatment of viral infections” (JANSSEN SCIENCES IRELAND UNLIMITED COMPANY, priority 2012, dated 2020):

Legend:
Type in all cases: cell-based
human TLR8 = biological target: T1, human TLR8 (Homo sapiens, UniProt Q9NR97); test: TLR8 cellular NFκB-luc reporter assay in transiently transfected HEK293 cells; settings: lowest effective concentration, 6 hours incubation
T1 construct: expressed in transfected cells; host or cells: HEK293
T1 sequence (Q9NR97 27-1041): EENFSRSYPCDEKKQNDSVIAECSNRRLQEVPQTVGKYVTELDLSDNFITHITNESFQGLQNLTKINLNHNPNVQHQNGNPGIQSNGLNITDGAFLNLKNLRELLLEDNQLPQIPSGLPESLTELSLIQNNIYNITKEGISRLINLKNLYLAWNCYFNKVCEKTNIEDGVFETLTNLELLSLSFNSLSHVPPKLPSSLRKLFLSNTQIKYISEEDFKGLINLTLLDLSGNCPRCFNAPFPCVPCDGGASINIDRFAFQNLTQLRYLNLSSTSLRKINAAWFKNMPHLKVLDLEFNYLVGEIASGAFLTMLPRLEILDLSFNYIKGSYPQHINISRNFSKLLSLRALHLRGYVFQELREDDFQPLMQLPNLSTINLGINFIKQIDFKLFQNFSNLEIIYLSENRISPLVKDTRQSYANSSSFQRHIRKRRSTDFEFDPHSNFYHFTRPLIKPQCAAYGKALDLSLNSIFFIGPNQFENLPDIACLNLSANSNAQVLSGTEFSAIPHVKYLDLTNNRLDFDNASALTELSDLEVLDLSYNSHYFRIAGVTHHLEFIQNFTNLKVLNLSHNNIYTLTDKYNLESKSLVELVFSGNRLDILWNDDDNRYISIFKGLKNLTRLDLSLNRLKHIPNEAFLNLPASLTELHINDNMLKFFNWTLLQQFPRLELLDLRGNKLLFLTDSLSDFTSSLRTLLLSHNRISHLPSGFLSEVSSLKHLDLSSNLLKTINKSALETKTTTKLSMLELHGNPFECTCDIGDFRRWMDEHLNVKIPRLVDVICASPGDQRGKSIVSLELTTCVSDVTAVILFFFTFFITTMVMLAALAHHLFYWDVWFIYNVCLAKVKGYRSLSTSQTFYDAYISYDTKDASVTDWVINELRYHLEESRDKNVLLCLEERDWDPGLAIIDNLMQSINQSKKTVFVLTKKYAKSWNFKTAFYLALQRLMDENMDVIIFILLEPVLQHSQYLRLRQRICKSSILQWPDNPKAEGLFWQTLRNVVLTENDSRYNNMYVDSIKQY
Procedure: (§1) The ability of compounds to activate human TLR7 and/or TLR8 was assessed in a cellular reporter assay using HEK293 cells transiently transfected with a TLR7 or TLR8 expression vector and NFκB-luc reporter construct.
(§2) Briefly, HEK293 cells were grown in culture medium (DMEM supplemented with 10% FCS and 2 mM Glutamine). For transfection of cells in 15 cm dishes, cells were detached with Trypsin-EDTA, transfected with a mix of CMV-TLR7 or TLR8 plasmid (1700 ng), NFκB-luc plasmid (850 ng) and a transfection reagent and incubated for 48 h at 37° C. in a humidified 5% CO2 atmosphere. Transfected cells were then washed in PBS, detached with Trypsin-EDTA and resuspended in medium to a density of 1.25×10^5 cells/mL. Forty microliters of cells were then dispensed into each well in 384-well plates, where 200 nL of compound in 100% DMSO was already present. Following 6 hours incubation at 37° C., 5% CO2, the luciferase activity was determined by adding 15 μL of Steady Lite Plus substrate (Perkin Elmer) to each well and readout performed on a ViewLux ultraHTS microplate imager (Perkin Elmer). Dose response curves were generated from measurements performed in quadruplicates. Lowest effective concentrations (LEC) values, defined as the concentration that induces an effect which is at least two fold above the standard deviation of the assay, were determined for each compound.

[1] = system: interferon-stimulated responsive elements (ISRE); test: Activation of ISRE promoter elements in HEK-ISREluc cells by conditioned media from PBMC; settings: Homo sapiens, compound concentration applied to PBMCs, supernatant transferred to HEK-ISREluc cells, 24 hours, read-out: HEK-ISRE luc (LEC)
Procedure: The potential of compounds to induce IFN-I was also evaluated by measuring the activation of interferon-stimulated responsive elements (ISRE) by conditioned media from PBMC. The ISRE element of sequence GAAACTGAAACT (SEQ ID: 1) is highly responsive to the STAT1-STAT2-IRF9 transcription factor, activated upon binding of IFN-I to their receptor IFNAR (Clontech, PT3372-5W). The plasmid pISRE-Luc from Clontech (ref. 631913) contains 5 copies of this ISRE element, followed by the firefly luciferase ORF. A HEK293 cell line stably transfected with pISRE-Luc (HEK-ISREluc) was established to profile the conditioned PBMC cell culture media.
Briefly, PBMCs were prepared from buffy coats of at least two donors using a standard Ficoll centrifugation protocol. Isolated PBMCs were resuspended in RPMI medium supplemented with 10% human AB serum and 2×10^5 cells/well were dispensed into 384-well plates containing compounds (70 μL total volume). After overnight incubation, 10 μL of supernatant was transferred to 384-well plates containing 5×10^3 HEK-ISREluc cells/well in 30 μL (plated the day before). Following 24 hours of incubation, activation of the ISRE elements was measured by assaying luciferase activity using 40 μL/well Steady Lite Plus substrate (Perkin Elmer) and measured with ViewLux ultraHTS microplate imager (Perkin Elmer). The stimulating activity of each compound on the HEK-ISREluc cells was reported as LEC value, defined as the compound concentration applied to the PBMCs resulting in a luciferase activity at least two fold above the standard deviation of the assay. The LEC in turn indicates the degree of ISRE activation on transfer of a defined amount of PBMC culture medium. Recombinant interferon α-2a (Roferon-A) was used as a standard control compound.

human TLR7 = biological target: T2, human TLR7 (Homo sapiens, UniProt Q9NYK1); test: TLR7 cellular NFκB-luc reporter assay in transiently transfected HEK293 cells; settings: lowest effective concentration, 6 hours incubation
T2 construct: expressed in transfected cells; host or cells: HEK293
T2 sequence (Q9NYK1 27-1049): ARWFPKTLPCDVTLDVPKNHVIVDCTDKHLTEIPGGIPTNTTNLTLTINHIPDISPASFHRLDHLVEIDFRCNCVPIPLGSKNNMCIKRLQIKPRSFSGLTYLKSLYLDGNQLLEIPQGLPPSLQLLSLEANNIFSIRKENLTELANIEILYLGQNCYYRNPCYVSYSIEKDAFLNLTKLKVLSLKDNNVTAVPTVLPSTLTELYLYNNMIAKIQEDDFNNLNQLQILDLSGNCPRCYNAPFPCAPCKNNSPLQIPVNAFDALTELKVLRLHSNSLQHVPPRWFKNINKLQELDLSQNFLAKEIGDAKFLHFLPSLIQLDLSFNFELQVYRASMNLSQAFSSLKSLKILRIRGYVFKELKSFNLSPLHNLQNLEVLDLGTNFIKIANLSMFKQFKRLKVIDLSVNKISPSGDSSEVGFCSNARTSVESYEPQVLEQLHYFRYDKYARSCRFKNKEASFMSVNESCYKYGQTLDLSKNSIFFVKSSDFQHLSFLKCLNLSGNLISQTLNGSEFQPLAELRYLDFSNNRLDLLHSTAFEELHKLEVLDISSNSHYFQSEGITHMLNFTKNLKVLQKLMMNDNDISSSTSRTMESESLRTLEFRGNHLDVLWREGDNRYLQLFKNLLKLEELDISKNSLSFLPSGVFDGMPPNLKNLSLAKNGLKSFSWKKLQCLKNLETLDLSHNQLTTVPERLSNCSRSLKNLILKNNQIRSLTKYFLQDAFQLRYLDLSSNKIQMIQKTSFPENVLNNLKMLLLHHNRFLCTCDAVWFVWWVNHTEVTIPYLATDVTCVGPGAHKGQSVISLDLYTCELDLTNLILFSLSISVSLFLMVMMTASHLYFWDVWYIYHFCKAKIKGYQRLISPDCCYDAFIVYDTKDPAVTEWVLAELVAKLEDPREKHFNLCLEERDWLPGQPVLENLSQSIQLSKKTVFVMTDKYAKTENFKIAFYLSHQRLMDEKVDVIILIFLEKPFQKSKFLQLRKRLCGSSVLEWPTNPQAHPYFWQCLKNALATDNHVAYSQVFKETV
Procedure: as §1, §2

Structure (SMILES) | Human TLR 8 (LEC) (human TLR8) | minimal effective concentration [1] | Human TLR 7 (LEC) (human TLR7)
Nc1nc(N[C@@H](CO)[C@@H](O)c2ccccc2)c2ccccc2n1 [Compound 17] | 5.51 µM | 0.16 µM | 0.83 µM
CC(Nc1nc(N)nc2cc(C(=O)N(C)C)ccc12)c1ccccn1 (stereo not shown) [Compound 23] | >25 µM | 1.62 µM | 6.67 µM
Cc1cc(CNc2nc(N)nc3cccc(F)c23)no1 [Compound 11] | 3.09 µM | 0.082 µM | 0.45 µM
C[C@@H](Nc1nc(N)nc2c(F)cccc12)c1ccccn1 (single isomer, unassigned) [Compound 9] | >25 µM | 1.68 µM | 5.21 µM
COc1ccc2c(N[C@H](C)c3ccccn3)nc(N)nc2c1 (single isomer, unassigned) [Compound 6] | >25 µM | 0.64 µM | 3.75 µM
CCN(CC)C(=O)c1ccc2c(N[C@H](C)c3ccccn3)nc(N)nc2c1 (single isomer, unassigned) [Compound 26] | >25 µM | 7.33 µM | 2.14 µM
COc1cccc2nc(N)nc(N[C@H](c3ccccn3)C(F)(F)F)c12 (single isomer, unassigned) [Compound 3] | >25 µM | 0.47 µM | 0.76 µM
Cc1ccc2c(N[C@H](C)c3ccccn3)nc(N)nc2c1 (single isomer, unassigned) [Compound 5] | 14.7 µM | 0.11 µM | 0.53 µM
Cc1cc(CNc2nc(N)nc3cccc(C)c23)no1 [Compound 19] | 1.74 µM | 0.051 µM | 0.11 µM
COc1cccc2nc(N)nc(N[C@H](C)c3ccccn3)c12 (single isomer, unassigned) [Compound 2] | >25 µM | 0.49 µM | 0.94 µM
Cc1cc(CNc2nc(N)nc3cc(F)ccc23)no1 [Compound 13] | 5.22 µM | 0.12 µM | 0.46 µM
CNC(=O)c1ccc2c(N[C@H](C)c3ccccn3)nc(N)nc2c1 (single isomer, unassigned) [Compound 27] | >25 µM | 5.04 µM | 8.24 µM
C[C@@H](Nc1nc(N)nc2ccccc12)c1ccccn1 (single isomer, unassigned) [Compound 1] | >25 µM | 0.61 µM | 0.72 µM
CCn1ncnc1[C@H](C)Nc1nc(N)nc2cccc(OC)c12 (single isomer, unassigned) [Compound 21] | 8.85 µM | 0.54 µM | 6.1 µM
COc1cccc2nc(N)nc(N[C@H](C)c3cnn(C)c3)c12 (single isomer, unassigned) [Compound 16] | 9.14 µM | 0.55 µM | 2.44 µM
CCc1noc([C@@H](C)Nc2nc(N)nc3cccc(OC)c23)n1 (single isomer, unassigned) [Compound 25] | 6.62 µM | 0.49 µM | 1.95 µM
C[C@@H](Nc1nc(N)nc2cc(F)ccc12)c1ccccn1 (single isomer, unassigned) [Compound 4] | 19.8 µM | 0.59 µM | 0.92 µM
C[C@@H](Nc1nc(N)nc2cc(C(=O)N3CCCC3)ccc12)c1ccccn1 (single isomer, unassigned) [Compound 28] | >25 µM | 1.57 µM | 2.24 µM
CNC(=O)c1ccc2c(NC(C)c3ccccn3)nc(N)nc2c1 (stereo not shown) [Compound 22] | >25 µM | 2.2 µM | 14.7 µM
COc1cccc2nc(N)nc(N[C@H](C)c3nccs3)c12 (single isomer, unassigned) [Compound 10] | 12.3 µM | 0.11 µM | 0.42 µM
COCCOc1cccc2nc(N)nc(NCc3cc(C)on3)c12 [Compound 29] | 8.15 µM | – | 0.082 µM
COC(=O)c1ccc2c(N[C@H](C)c3ccccn3)nc(N)nc2c1 (single isomer, unassigned) [Compound 8] | – | 2.11 µM | 4.94 µM
